IC50 data for 15 compounds are collected here from patent US20100285149A1, “NOVEL TETRAHYDROPYRIDOTHIOPHENES” (priority 2006, published 2010).

SMILES strings stand for the structures.

For orientation: IC50 means the concentration at which inhibition is half-maximal. Low values mean inhibition by little substance, high ones a need for much substance.

Test [1] has as its system RKO colon adenocarcinoma cells (RKOp27) arrested by the expression of ectopic p27Kip1. Briefly: Alamar Blue cell viability assay, RKO p27 cells arrested by Ponasterone A induced p27Kip1. The note with it: Homo sapiens, anti-proliferative/cytotoxic activity, 72 hours incubation, 10 μM Ponasterone A. It is filed as cell-based. The protocol:
To determine the cell cycle specific mode of action, subclones of RKO colon adenocarcinoma cells (RKOp27 or RKOp21 as described by Schmidt et al. in Oncogene 19, 2423-2429; 2000) are seeded into 96 well flat bottom plates at a density of 15000 cells per well in a volume of 50 μl per well in DMEM growth medium with 10% FCS containing 10 μM Ponasterone A. 24 hours after seeding the 50 μl each of the compound dilutions in DMEM medium are added into each well of the 96 Well plate. Each compound dilution is tested as quadruplicates. Wells containing untreated control cells are filled with 50 μl DMEM medium containing 1% DMSO. The cells are then incubated with the substances for 72 hours at 37° C. in a humidified athmosphere containing 5% carbon dioxide. To determine the viability of the cells, 10 μl of an Alamar Blue solution (Biosource) are added and the fluorescence was measured at an extinction of 544 nm and an emission of 590 nm. For the calculation of the cell viability the emission value from untreated cells is set as 100% viability and the emission rates of treated cells are set in relation to the values of untreated cells. Viabilities are expressed as % values. Viability is compared of proliferating cells grown in the absence of the inducer Ponasterone A, versus viability of cells arrested by the expression of ectopic p27Kip1 induced by Ponasterone A.
(§1) Representative IC50 values for anti-proliferation/cytotoxicity determined in the mentioned assays follow from the following table A, in which the numbers of the compound correspond to the numbers of the examples.
A general note: The colour change of resazurin is a common sign of viable cells or microbes.

The subject of test [2] is RKO (RKOp27) human colon adenocarcinoma cells. Nature of the test: Alamar Blue cell viability assay, proliferating (uninduced) RKO p27 cells. In kind it is cell-based. The conditions noted are these: anti-proliferative/cytotoxic activity, 72 hours incubation, no Ponasterone A. As to the method: The anti-proliferative/cytotoxic activity of the compounds described herein, can be tested on subclones of RKO (RKOp27) human colon adenocarcinoma cells (Schmidt et al., Oncogene 19, 2423-2429; 2000) using the Alamar Blue cell viability assay (described in O'Brien et al. Eur J Biochem 267, 5421-5426, 2000). The compounds are dissolved as 20 mM solutions in dimethylsulfoxide (DMSO) and subsequently diluted in semi-logarithmic steps. DMSO dilutions are further diluted 1:100 into Dulbecco's modified Eagle's medium (DMEM) containing 10% fetal calf serum to a final concentration twice as much as the final concentration in the test. RKO subclones are seeded into 96 well flat bottom plates at a density of 5000 cells per well in a volume of 50 μl per well. 24 hours after seeding the 50 μl each of the compound dilutions in DMEM medium are added into each well of the 96 Well plate. Each compound dilution is tested as quadruplicates. Wells containing untreated control cells are filled with 50 μl DMEM medium containing 1% DMSO. The cells are then incubated with the substances for 72 hours at 37° C. in a hunified atmosphere containing 5% carbon dioxide. To determine the viability of the cells, 10 μl of an Alamar Blue solution (Biosource) are added and the fluorescence is measured at an extinction of 544 nm and an emission of 590 nm. For the calculation of the cell viability the emission value from untreated cells is set as 100% viability and the emission rates of treated cells are set in relation to the values of untreated cells. Viabilities are expressed as % values.
The corresponding IC50 values of the compounds for anti-proliferative/cytotoxic activity are determined from the concentration-effect curves.
as §1

Turning to `CCNC(=O)N1CCc2c(sc(NC(=O)C3CC3c3ccccc3OC)c2C#N)C1` (racemic) [Example 116, 3-Cyano-2-({1-[(RS)-2-(2-methoxy-phenyl)-cyclopropyl]-methanoyl}-amino)-4,7-dihydro-5H-thieno[2,3-c]pyridine-6-carboxylic acid ethylamide], the IC50 in test [1] was ≥ 100000 nM; in test [2], ≤ 500 nM.

On to `CCNC(=O)N1CCc2c(sc(NC(=O)C3CC3c3cccc(OC)c3)c2C#N)C1` (racemic) [Example 117, 3-Cyano-2-({1-[(RS)-2-(3-methoxy-phenyl)-cyclopropyl]-methanoyl}-amino)-4,7-dihydro-5H-thieno[2,3-c]pyridine-6-carboxylic acid ethylamide], for which the 50% inhibitory concentration (IC50) in test [1] is ≥ 60000 nM; in test [2] it was ≤ 500 nM.

With `COc1cccc(CCC(=O)Nc2sc3c(c2C#N)CCN(C(=O)NCCc2cn(C)cn2)C3)c1` [Example 71, 3-Cyano-2-[3-(3-methoxy-phenyl)-propanoylamino]-4,7-dihydro-5H-thieno[2,3-c]pyridine-6-carboxylic acid [2-(1-methyl-1H-imidazol-4-yl)-ethyl]-amide], the figures for the 50% inhibitory concentration (IC50) in test [1] and in test [2] were ≥ 100000 nM and 500 to 2000 nM, respectively.

For `COc1ccccc1CCC(=O)Nc1sc2c(c1C#N)CCN(C(=O)NCCc1cn(C)cn1)C2` [Example 105, 3-Cyano-2-[3-(2-methoxy-phenyl)-propanoylamino]-4,7-dihydro-5H-thieno[2,3-c]pyridine-6-carboxylic acid [2-(1-methyl-1H-imidazol-4-yl)-ethyl]-amide], the IC50 is ≥ 100000 nM in test [1] and ≤ 500 nM in test [2].

Turning to `CCNC(=O)N1CCc2c(sc(NC(=O)CCc3ccccc3OCC)c2C#N)C1` [Example 106, 3-Cyano-2-[3-(2-ethoxy-phenyl)-propanoylamino]-4,7-dihydro-5H-thieno[2,3-c]pyridine-6-carboxylic acid ethylamide], the IC50 in test [1] was ≥ 100000 nM; in test [2] it was ≤ 500 nM.

As for `CCNC(=O)N1CCc2c(sc(NC(=O)CCc3cc(C)ccc3OC)c2C#N)C1` [Example 107, 3-Cyano-2-[3-(2-methoxy-5-methyl-phenyl)-propanoylamino]-4,7-dihydro-5H-thieno[2,3-c]pyridine-6-carboxylic acid ethylamide], the IC50 in test [1] was ≥ 100000 nM; in test [2], ≤ 500 nM.

`CCNC(=O)N1CCc2c(sc(NC(=O)CCc3cccc(OC)c3)c2C#N)C1` [Example 108, 3-Cyano-2-[3-(3-methoxy-phenyl)-propanoylamino]-4,7-dihydro-5H-thieno[2,3-c]pyridine-6-carboxylic acid ethylamide]: the IC50 in test [1] is ≥ 100000 nM; in test [2], ≤ 500 nM.

`CCNC(=O)N1CCc2c(sc(NC(=O)CCc3ccco3)c2C#N)C1` [Example 109, 3-Cyano-2-(3-furan-2-yl-propanoylamino)-4,7-dihydro-5H-thieno[2,3-c]pyridine-6-carboxylic acid ethylamide]: the results for the IC50 in test [1] and in test [2] were ≥ 100000 nM and ≤ 500 nM, respectively.

Regarding `CCNC(=O)N1CCc2c(sc(NC(=O)CC(C)c3cccc(OC)c3)c2C#N)C1` (stereo not drawn) [Example 110, 3-Cyano-2-[3-(3-methoxy-phenyl)-butanoylamino]-4,7-dihydro-5H-thieno[2,3-c]pyridine-6-carboxylic acid ethylamide], the IC50 in test [1] was ≥ 100000 nM; in test [2], ≤ 500 nM.

On to `CCNC(=O)N1CCc2c(sc(NC(=O)CC(C)c3ccccc3OC)c2C#N)C1` (stereo not drawn) [Example 111, 3-Cyano-2-[3-(2-methoxy-phenyl)-butanoylamino]-4,7-dihydro-5H-thieno[2,3-c]pyridine-6-carboxylic acid ethylamide], for which the IC50 was ≥ 60000 nM in test [1] and ≤ 500 nM in test [2].

In the case of `CCNC(=O)N1CCc2c(sc(NC(=O)CC(C)c3ccccc3OCC)c2C#N)C1` (stereo not drawn) [Example 112, 3-Cyano-2-[3-(2-ethoxy-phenyl)-butanoylamino]-4,7-dihydro-5H-thieno[2,3-c]pyridine-6-carboxylic acid ethylamide], the IC50 in test [1] was ≥ 100000 nM; in test [2], ≤ 500 nM.

For the compound `CCNC(=O)N1CCc2c(sc(NC(=O)CCc3ccccc3OC)c2C#N)C1` [Example 113, 3-Cyano-2-[3-(2-methoxy-phenyl)-propanoylamino]-4,7-dihydro-5H-thieno[2,3-c]pyridine-6-carboxylic acid ethylamide], the IC50 was ≥ 100000 nM in test [1] and ≤ 500 nM in test [2].

For the compound `CCNC(=O)N1CCc2c(sc(NC(=O)CC(C)c3ccccc3)c2C#N)C1` (stereo not drawn) [Example 114, 3-Cyano-2-(3-phenyl-butanoylamino)-4,7-dihydro-5H-thieno[2,3-c]pyridine-6-carboxylic acid ethylamide], the IC50 was ≥ 100000 nM in test [1] and ≤ 500 nM in test [2].

Consider `CCNC(=O)N1CCc2c(sc(NC(=O)CCc3ccccc3)c2C#N)C1` [Example 115, 3-Cyano-2-(3-phenyl-propanoylamino)-4,7-dihydro-5H-thieno[2,3-c]pyridine-6-carboxylic acid ethylamide], for which the values for the IC50 in test [1] and in test [2] were ≥ 100000 nM and ≤ 500 nM, respectively.

`CCNC(=O)N1CCc2c(sc(NC(=O)CCC3CCCCC3)c2C#N)C1` [Example 118, 3-Cyano-2-(3-cyclohexyl-propanoylamino)-4,7-dihydro-5H-thieno[2,3-c]pyridine-6-carboxylic acid ethylamide]: the IC50 was ≥ 100000 nM in test [1] and ≤ 500 nM in test [2].
